Laboratory results taken from patent US11524966B1 (Valo Early Discovery, Inc., priority 2017, dated 2022).

target: T1, USP25 (USP25-His6, Boston Biochem E-546) (Homo sapiens, UniProt Q9UHP3); test: Ubiquitin-Rhodamine 110 Assay for USP25 Activity, Example A-2; type: biochemical; settings: Ubiquitin-Rhodamine 110 assay, Example A-2; read-out: USP25 A-2 IC50 range
T1 construct: His6; purchased Boston Biochem E-546
T1 sequence (Q9UHP3 1-1055): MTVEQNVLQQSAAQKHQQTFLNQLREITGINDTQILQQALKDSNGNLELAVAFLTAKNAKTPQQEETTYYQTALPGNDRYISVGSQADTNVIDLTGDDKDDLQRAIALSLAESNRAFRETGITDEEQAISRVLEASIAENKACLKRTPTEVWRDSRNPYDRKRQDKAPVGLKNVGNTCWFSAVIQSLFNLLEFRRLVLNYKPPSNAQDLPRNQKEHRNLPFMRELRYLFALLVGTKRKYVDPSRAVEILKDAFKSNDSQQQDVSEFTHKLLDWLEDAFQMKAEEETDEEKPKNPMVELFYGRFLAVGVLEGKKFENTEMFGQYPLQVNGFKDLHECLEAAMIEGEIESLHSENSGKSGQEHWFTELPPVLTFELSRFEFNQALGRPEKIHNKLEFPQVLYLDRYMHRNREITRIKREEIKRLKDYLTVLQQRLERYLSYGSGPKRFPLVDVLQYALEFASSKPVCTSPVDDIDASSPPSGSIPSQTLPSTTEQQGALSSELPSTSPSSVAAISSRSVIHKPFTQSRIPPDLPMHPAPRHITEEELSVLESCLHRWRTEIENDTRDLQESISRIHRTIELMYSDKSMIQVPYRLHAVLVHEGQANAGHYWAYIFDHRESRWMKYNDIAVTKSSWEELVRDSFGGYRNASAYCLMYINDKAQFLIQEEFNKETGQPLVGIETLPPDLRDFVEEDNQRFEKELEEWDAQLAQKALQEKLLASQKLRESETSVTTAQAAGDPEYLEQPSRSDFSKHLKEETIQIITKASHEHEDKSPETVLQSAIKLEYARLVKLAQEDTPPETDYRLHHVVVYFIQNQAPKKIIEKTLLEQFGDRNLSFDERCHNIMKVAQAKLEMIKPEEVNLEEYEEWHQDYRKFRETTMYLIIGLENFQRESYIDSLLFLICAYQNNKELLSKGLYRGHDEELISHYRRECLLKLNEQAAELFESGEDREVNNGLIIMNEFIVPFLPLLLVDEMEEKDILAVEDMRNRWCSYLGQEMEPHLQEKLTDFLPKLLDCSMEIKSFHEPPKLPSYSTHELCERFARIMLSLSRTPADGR
Method in brief: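 Cleavage of ubiquitin-rhodamine 110 (25 nM, well below Km) by His-tagged USP25 at 75 pM is measured fluorimetrically after 45 min at room temperature and acid quench. Inhibitors are preincubated with enzyme for 30 minutes. IC50 values come from four-parameter logistic curve fitting.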

SMILES | IC50 [nM]
O=C(N[C@@H]1CCc2cc(N3CC4CCC(C3)N4)cc(F)c2C1)c1cnc2c(c1)[C@H]1C[C@H]1CN2 [Example 194, (6aR,7aS)-N-[(2R)-6-{3,8-diazabicyclo[3.2.1]octan-3-yl}-8-fluoro-1,2,3,4-tetrahydronaphthalen-2-yl]-5H,6H,6aH,7H,7aH-cyclopropa[c]1,8-naphthyridine-2-carboxamide] | 200 to 2000
CO[C@H]1CN(c2ccc3c(c2)CC[C@H](NC(=O)c2cnc4c(c2)[C@H]2C[C@H]2CN4)C3)C[C@@H]1N [Example 190, (6aR,7aS)-N-[(2S)-6-[(3S,4S)-3-amino-4-methoxypyrrolidin-1-yl]-1,2,3,4-tetrahydronaphthalen-2-yl]-5H,6H,6aH,7H,7aH-cyclopropa[c]1,8-naphthyridine-2-carboxamide] | > 2000
Cc1cc(C)c2c(N)c(C(=O)N[C@H]3COc4cc(N5CC[C@@H]6CNC[C@@H]65)cc(F)c4C3)sc2n1 (single isomer, unassigned) [Example 223] | 50 to 200
Cc1ccc2c(N)c(C(=O)N[C@H]3COc4cc(N5C[C@H](N)C(F)(F)C5)ccc4C3)sc2n1 [Example 256, 3-amino-N-[(3R)-7-[(4S)-4-amino-3,3-difluoropyrrolidin-1-yl]-3,4-dihydro-2H-1-benzopyran-3-yl]-6-methylthieno[2,3-b]pyridine-2-carboxamide] | 200 to 2000
CO[C@H]1CN(c2nc3c(cc2F)C[C@@H](NC(=O)c2sc4nc(C)ccc4c2N)CC3)C[C@@H]1N [Example 183, 3-amino-N-[(6S)-2-[(3S,4S)-3-amino-4-methoxypyrrolidin-1-yl]-3-fluoro-5,6,7,8-tetrahydroquinolin-6-yl]-6-methylthieno[2,3-b]pyridine-2-carboxamide] | > 2000
Cc1cc(C)c2c(N)c(C(=O)N[C@H]3COc4cc(N5CC[C@H]6CNC[C@H]65)ccc4C3)sc2n1 [Example 226, N-[(3R)-7-[(3aS,6aS)-octahydropyrrolo[2,3-c]pyrrol-1-yl]-3,4-dihydro-2H-1-benzopyran-3-yl]-3-amino-4,6-dimethylthieno[2,3-b]pyridine-2-carboxamide] | 50 to 200
Cc1ccc2c(N)c(C(=O)N[C@H]3COc4cc(N5CC[C@@H]6CCNC[C@@H]65)ccc4C3)sc2n1 [Example 225] | 1 to 50
Cc1ccc2c(N)c(C(=O)N[C@H]3COc4cc(N5CC[C@H]6CNCC[C@H]65)ccc4C3)sc2n1 [Example 235, N-[(3R)-7-[(3aS,7aR)-octahydro-1H-pyrrolo[3,2-c]pyridin-1-yl]-3,4-dihydro-2H-1-benzopyran-3-yl]-3-amino-6-methylthieno[2,3-b]pyridine-2-carboxamide] | 50 to 200
N#Cc1c(N2CC3CCC(C2)N3)cc(F)c2c1CC[C@@H](NC(=O)c1cnc3c(c1)[C@H]1C[C@H]1CN3)C2 [Example 198, (6aR,7aS)-N-[(2R)-5-cyano-6-{3,8-diazabicyclo[3.2.1]octan-3-yl}-8-fluoro-1,2,3,4-tetrahydronaphthalen-2-yl]-5H,6H,6aH,7H,7aH-cyclopropa[c]1,8-naphthyridine-2-carboxamide] | 200 to 2000
Cc1nc2sc(C(=O)N[C@H]3CCc4nc(N5CCNCC5)ccc4C3)c(N)c2cc1F [Example 204, 3-amino-5-fluoro-6-methyl-N-[(6S)-2-(piperazin-1-yl)-5,6,7,8-tetrahydroquinolin-6-yl]thieno[2,3-b]pyridine-2-carboxamide] | 200 to 2000
CO[C@H]1CN(c2ccc3c(n2)CC[C@H](NC(=O)c2sc4nc(C)ccc4c2N)C3)C[C@]1(C)N [Example 239, 3-amino-N-[(6S)-2-[(3S,4S)-3-amino-4-methoxy-3-methylpyrrolidin-1-yl]-5,6,7,8-tetrahydroquinolin-6-yl]-6-methylthieno[2,3-b]pyridine-2-carboxamide] | > 2000
Cc1ccc2c(N)c(C(=O)N[C@H]3COc4cc(N5C[C@@H](N)C6(COC6)C5)ccc4C3)sc2n1 [Example 259, 3-amino-N-[(3R)-7-[(8S)-8-amino-2-oxa-6-azaspiro[3.4]octan-6-yl]-3,4-dihydro-2H-1-benzopyran-3-yl]-6-methylthieno[2,3-b]pyridine-2-carboxamide] | 200 to 2000
CO[C@@H]1CN(c2ccc3c(n2)CC[C@H](NC(=O)c2sc4nc(C)ccc4c2N)C3)C[C@@]1(C)N [Example 240, 3-amino-N-[(6S)-2-[(3R,4R)-3-amino-4-methoxy-3-methylpyrrolidin-1-yl]-5,6,7,8-tetrahydroquinolin-6-yl]-6-methylthieno[2,3-b]pyridine-2-carboxamide] | > 2000
CCO[C@H]1CN(c2ccc3c(n2)OC[C@H](NC(=O)c2sc4nc(C)cnc4c2N)C3)C[C@@H]1N [Example 182, 7-amino-N-[(3R)-7-[(3S,4S)-3-amino-4-ethoxypyrrolidin-1-yl]-2H,3H,4H-pyrano[2,3-b]pyridin-3-yl]-3-methylthieno[2,3-b]pyrazine-6-carboxamide] | > 2000
Cc1cc(C)c2c(N)c(C(=O)N[C@H]3CCc4nc(N5CC[C@H]6CNC[C@H]65)ccc4C3)sc2n1 [Example 218, N-[(6S)-2-[(3aS 6aS)-octahydropyrrolo[2,3-c]pyrrol-1-yl]-5,6,7,8-tetrahydroquinolin-6-yl]-3-amino-4,6-dimethylthieno[2,3-b]pyridine-2-carboxamide] | 200 to 2000
Cc1ccc2c(N)c(C(=O)N[C@H]3COc4cc(N5CC6CCC[C@@]6(N)C5)ccc4C3)sc2n1 (stereo partly drawn) [Example 248, N-[(3R)-7-[(3aS)-3a-amino-octahydrocyclopenta[c]pyrrol-2-yl]-3,4-dihydro-2H-1-benzopyran-3-yl]-3-amino-6-methylthieno[2,3-b]pyridine-2-carboxamide] | 200 to 2000
Cc1ccc2c(N)c(C(=O)N[C@H]3COc4cc(N5CC[C@@H]6CNCC[C@@H]65)ccc4C3)sc2n1 [Example 236, N-[(3R)-7-[(3aR,7aS)-octahydro-1H-pyrrolo[3,2-c]pyridin-1-yl]-3,4-dihydro-2H-1-benzopyran-3-yl]-3-amino-6-methylthieno[2,3-b]pyridine-2-carboxamide] | 50 to 200
